Key:
Assay in all cases: QTX125-containing combination therapy, hexosaminidase cell viability
Format in all cases: cell-based
[1] = tested on: Hep-G2 hepatic cancer cells; conditions: for combination index (C.I): Hep-G2; for EC50: Homo sapiens, HepG2, Hep-G2
Protocol: (§1) To assess the oncolytic efficacy of QTX125-containing combination therapies in vitro, colonic, pancreatic, hepatic and ovarian tumour cells were administered sorafenib, gemcitabine or bortezomib at EC25, EC50 and EC75 doses. QTX125 was co-administered in order to produce a dose response curve.
(§2) To prepare cells for viability assays, cells were transferred into 96 well tissue culture plates (Cultek), and resuspended in 100 µL at the following densities: 10,000 cells/well (Hep-G2 and MiaPaCa-2), 5000 cells/well (Panc-1 and SK-OV-3) or 3000 cells/well (HCT-116). Following 24 hours of incubation, media was removed and replaced with 100 µL media spiked with QTX125 and the test chemotherapeutic agents. Stock solutions for the agents used in this study are shown below in Table 1. Cells were incubated for a further 72 hours before cell viability was assessed using both ALAMAR® and hexosaminidase assays.
(§3) For the hexosaminidase assay, media containing QTX125 and the test chemotherapeutic agents was removed, and cells were washed once with PBS. 60 μL of substrate solution (containing: 7.5 mM p-nitrophenol-N-acetyl-beta-D-glucosamide [Sigma N-9376], 0.1 M sodium citrate, pH 5.0 and 0.25% Triton X-100) was added to each well and cells were incubated at 37° C. for at least 1 hour. Incubating cells in this manner causes the substrate solution to become bright yellow, at which point 90 μL of developer solution (containing 50 mM Glycine pH 10.4 and 5 mM EDTA) was added to each well. Absorbance at 410 nm was recorded using a plate reader.
(§4) Control values were normalised to 100% and percentage (%) viability was calculated. Data were used to plot log dose-response curves using a sigmoid dose-response (variable slope) equation. EC50 values were obtained using Equation 1, where ‘X’ is the logarithmic concentration; ‘Y’ is the response output and it is assumed that Y starts at bottom of the graph and reaches the top with an overall sigmoid shape.
(§5) Cls were obtained using Equation 2, where (Dm) 1 is the ECx concentration of QTX125 and (D) 1 is the ECx concentration of QTX125 in the presence of sorafenib, gemcitabine or bortezomib.
(§6) In order to assess the oncolytic efficacy of QTX125-containing combination therapies, monotherapy EC25, EC50 and EC75 doses for sorafenib, gemcitabine and bortezomib were calculated (as per Experiment 3) and administered to wells at these fixed concentrations. QTX125 was co-administered at a range of concentrations, in order to plot a dose-response curve such that the EC50 dose of QTX125 could be calculated in the presence of sorafenib/gemcitabine/bortezomib. QTX125 was administered to cells at a starting high-dose, and a 1:1 dilution was completed thereafter. In this part of the study, only the hexosaminidase assay was employed to assess cell viability following treatment with QTX125-containing combination therapies.
(§7) It should be noted that it was not possible to determine the appropriate concentrations for gemcitabine in all cell lines tested. In cells resistant to gemcitabine, nominal concentrations were used in place of EC25, EC50 and EC75 doses (e.g., nominal doses of 1, 10 and 100 µM were used in Panc-1 and Hep-G2 cells).

[2] = tested on: MiaPaCa-2 pancreatic cancer cells; conditions: for EC50: Homo sapiens, MIA PaCa-2, MiaPaCa-2; for combination index (C.I.): MiaPaCa-2
Protocol: as §1, §2, §3, §4, §5, §6, §7

[3] = tested on: Panc-1 pancreatic cancer cells; conditions: for EC50: Homo sapiens, PANC-1, Panc-1; for combination index (C.I): Panc-1
Protocol: as §1, §2, §3, §4, §5, §6, §7

[4] = tested on: SK-OV-3 ovarian cancer cells; conditions: for EC50: Homo sapiens, SK-OV-3, SK-Ov-3; for combination index (C.I): SK-Ov-3
Protocol: as §1, §2, §3, §4, §5, §6, §7

[5] = + bortezomib at EC25 dose (0.014 μM)
[6] = + bortezomib at EC50 dose (0.016 μM)
[7] = + bortezomib at EC75 dose (0.026 μM)
[8] = + gemcitabine at EC25, nominal dose 1 μM
[9] = + gemcitabine at EC50, nominal dose 10 μM
[10] = + gemcitabine at EC75, nominal dose 100 μM
[11] = + sorafenib at EC25 dose (0.9 μM)
[12] = + sorafenib at EC50 dose (2.5 μM)
[13] = + sorafenib at EC75 dose (6.4 μM)
[14] = + bortezomib at EC25 dose (0.007 μM)
[15] = + bortezomib at EC50 dose (0.009 μM)
[16] = + bortezomib at EC75 dose (0.014 μM)
[17] = + gemcitabine at EC25 dose (0.01 μM)
[18] = + gemcitabine at EC50 dose (0.1 μM)
[19] = + gemcitabine at EC75 dose (1 μM)
[20] = + sorafenib at EC25 dose (4.2 μM)
[21] = + sorafenib at EC50 dose (6.8 μM)
[22] = + sorafenib at EC75 dose (10.3 μM)
[23] = + bortezomib at EC75 dose (0.015 μM)
[24] = + sorafenib at EC25 dose (4.1 μM)
[25] = + sorafenib at EC50 dose (7.4 μM)
[26] = + sorafenib at EC75 dose (15 μM)
[27] = + bortezomib at EC25 dose (0.006 μM)
[28] = + bortezomib at EC50 dose (0.007 μM)
[29] = + bortezomib at EC75 dose (0.012 μM)
[30] = + gemcitabine at EC25 dose (0.1 μM)
[31] = + gemcitabine at EC50 dose (0.25 μM)
[32] = + gemcitabine at EC75 dose (0.5 μM)
[33] = + sorafenib at EC25 dose (9.1 μM)
[34] = + sorafenib at EC50 dose (12.7 μM)
[35] = + sorafenib at EC75 dose (21.6 μM)

Question: For `O=C(NO)c1ccc(CNC(=O)c2[nH]c(-c3ccc(O)cc3)cc2-c2ccoc2)cc1` [QTX125, 3-(3-Furyl)-N-{4-[(hydroxyamino)carbonyl]benzyl}-5-(4-hydroxyphenyl)-1 Hpyrrole-2-carboxamide], which “combination index (C.I)” value [1, 5] is on record?
Answer: 0.4 arbitrary units

Question: What about the “combination index (C.I)” value [1, 6] of the same molecule?
Answer: 0.2 arbitrary units

Question: What about the “combination index (C.I)” value [1, 7] of the same molecule?
Answer: 0.2 arbitrary units

Question: And the “combination index (C.I)” value [1, 8]?
Answer: 0.6 arbitrary units

Question: And the “combination index (C.I)” value [1, 9]?
Answer: 0.2 arbitrary units

Question: What about the “combination index (C.I)” value [1, 10] of the same molecule?
Answer: 0.05 arbitrary units

Question: And the “combination index (C.I)” value [1, 11]?
Answer: 0.5 arbitrary units

Question: And the “combination index (C.I)” value [1, 12]?
Answer: 0.4 arbitrary units

Question: What about the “combination index (C.I)” value [1, 13] of the same molecule?
Answer: 0.5 arbitrary units

Question: And the EC50 [1, 5]?
Answer: 0.237 µM

Question: What about the EC50 [1, 6] of the same molecule?
Answer: 0.128 µM

Question: What about the EC50 [1, 7] of the same molecule?
Answer: 0.091 µM

Question: And the EC50 [1, 8]?
Answer: 0.744 µM

Question: And the EC50 [1, 9]?
Answer: 0.198 µM

Question: And the EC50 [1, 10]?
Answer: 0.0561 µM

Question: What about the EC50 [1, 11] of the same molecule?
Answer: 0.0879 µM

Question: And the EC50 [1, 12]?
Answer: 0.0749 µM

Question: What about the EC50 [1, 13] of the same molecule?
Answer: 0.0872 µM

Question: And the EC50 ([1]; no second agent (control of Table 5.3.1))?
Answer: 0.189 µM

Question: What about the EC50 ([1]; no second agent (control of Table 5.3.2)) of the same molecule?
Answer: 1.2 µM

Question: And the EC50 ([1]; no second agent (control of Table 5.3.3))?
Answer: 0.544 µM

Question: And the EC50 [2, 14]?
Answer: 0.239 µM

Question: And the EC50 [2, 15]?
Answer: 0.239 µM

Question: And the EC50 [2, 16]?
Answer: 0.246 µM

Question: And the EC50 [2, 17]?
Answer: 0.133 µM

Question: And the EC50 [2, 18]?
Answer: 0.112 µM

Question: And the EC50 [2, 19]?
Answer: 0.0456 µM

Question: And the EC50 [2, 20]?
Answer: 0.258 µM

Question: What about the EC50 [2, 21] of the same molecule?
Answer: 0.279 µM

Question: And the EC50 [2, 22]?
Answer: 0.26 µM

Question: What about the EC50 ([2]; no second agent (control of Table 5.2.1)) of the same molecule?
Answer: 0.214 µM

Question: What about the EC50 ([2]; no second agent (control of Table 5.2.2)) of the same molecule?
Answer: 0.146 µM

Question: What about the EC50 ([2]; no second agent (control of Table 5.2.3)) of the same molecule?
Answer: 0.23 µM

Question: What about the “combination index (C.I.)” value [2, 14] of the same molecule?
Answer: 1.0 arbitrary units

Question: What about the “combination index (C.I.)” value [2, 15] of the same molecule?
Answer: 1.0 arbitrary units

Question: What about the “combination index (C.I.)” value [2, 16] of the same molecule?
Answer: 1.1 arbitrary units

Question: And the “combination index (C.I.)” value [2, 17]?
Answer: 0.9 arbitrary units

Question: And the “combination index (C.I.)” value [2, 18]?
Answer: 0.8 arbitrary units

Question: What about the “combination index (C.I.)” value [2, 19] of the same molecule?
Answer: 0.3 arbitrary units

Question: And the “combination index (C.I.)” value [2, 20]?
Answer: 1.2 arbitrary units

Question: What about the “combination index (C.I.)” value [2, 21] of the same molecule?
Answer: 1.3 arbitrary units

Question: What about the “combination index (C.I.)” value [2, 22] of the same molecule?
Answer: 1.2 arbitrary units

Question: What about the EC50 [3, 14] of the same molecule?
Answer: 5.03 µM

Question: And the EC50 [3, 15]?
Answer: 5.48 µM

Question: What about the EC50 [3, 23] of the same molecule?
Answer: 1.46 µM

Question: What about the EC50 [3, 8] of the same molecule?
Answer: 4.11 µM

Question: And the EC50 [3, 9]?
Answer: 2.47 µM

Question: And the EC50 [3, 10]?
Answer: 1.94 µM

Question: What about the EC50 [3, 24] of the same molecule?
Answer: 13.7 µM

Question: And the EC50 [3, 25]?
Answer: 14.3 µM

Question: What about the EC50 [3, 26] of the same molecule?
Answer: 2.98 µM

Question: And the EC50 ([3]; no second agent (control of Table 5.5.1))?
Answer: 10.2 µM

Question: And the EC50 ([3]; no second agent (control of Table 5.5.2))?
Answer: 14.7 µM

Question: What about the EC50 ([3]; no second agent (control of Table 5.5.3)) of the same molecule?
Answer: 18.2 µM

Question: What about the “combination index (C.I)” value [3, 14] of the same molecule?
Answer: 0.3 arbitrary units

Question: And the “combination index (C.I)” value [3, 15]?
Answer: 0.3 arbitrary units

Question: And the “combination index (C.I)” value [3, 23]?
Answer: 0.1 arbitrary units

Question: What about the “combination index (C.I)” value [3, 8] of the same molecule?
Answer: 0.3 arbitrary units

Question: And the “combination index (C.I)” value [3, 9]?
Answer: 0.2 arbitrary units

Question: And the “combination index (C.I)” value [3, 10]?
Answer: 0.1 arbitrary units

Question: And the “combination index (C.I)” value [3, 24]?
Answer: 1.3 arbitrary units

Question: And the “combination index (C.I)” value [3, 25]?
Answer: 1.4 arbitrary units

Question: And the “combination index (C.I)” value [3, 26]?
Answer: 0.3 arbitrary units

Question: What about the EC50 [4, 27] of the same molecule?
Answer: 0.532 µM

Question: What about the EC50 [4, 28] of the same molecule?
Answer: 0.58 µM

Question: What about the EC50 [4, 29] of the same molecule?
Answer: 0.262 µM

Question: What about the EC50 [4, 30] of the same molecule?
Answer: 0.171 µM

Question: And the EC50 [4, 31]?
Answer: 0.303 µM

Question: And the EC50 [4, 32]?
Answer: 0.139 µM

Question: What about the EC50 [4, 33] of the same molecule?
Answer: 0.389 µM

Question: And the EC50 [4, 34]?
Answer: 0.657 µM

Question: What about the EC50 [4, 35] of the same molecule?
Answer: 0.406 µM

Question: And the EC50 ([4]; no second agent (control of Table 5.4.1))?
Answer: 0.623 µM

Question: And the EC50 ([4]; no second agent (control of Table 5.4.2))?
Answer: 0.282 µM

Question: What about the EC50 ([4]; no second agent (control of Table 5.4.3)) of the same molecule?
Answer: 0.633 µM

Question: And the “combination index (C.I)” value [4, 27]?
Answer: 0.8 arbitrary units

Question: What about the “combination index (C.I)” value [4, 28] of the same molecule?
Answer: 0.9 arbitrary units

Question: What about the “combination index (C.I)” value [4, 29] of the same molecule?
Answer: 0.4 arbitrary units

Question: What about the “combination index (C.I)” value [4, 30] of the same molecule?
Answer: 0.6 arbitrary units

Question: And the “combination index (C.I)” value [4, 31]?
Answer: 1.1 arbitrary units

Question: What about the “combination index (C.I)” value [4, 32] of the same molecule?
Answer: 0.5 arbitrary units

Question: What about the “combination index (C.I)” value [4, 33] of the same molecule?
Answer: 0.6 arbitrary units

Question: What about the “combination index (C.I)” value [4, 34] of the same molecule?
Answer: 1.1 arbitrary units

Question: What about the “combination index (C.I)” value [4, 35] of the same molecule?
Answer: 0.7 arbitrary units

From US20250281453A1, “COMBINATION THERAPIES COMPRISING QTX125” (QUIMATRYX, S.L., priority 2022, published 2025)
